Laboratory results reported in PMC3076140 (Journal of medicinal chemistry, 2011).

Legend:
[1] = tested on: mouse MC1 and MC3-5 receptors
melanocortin receptors = conditions: lactam bridge template; cited from earlier work

Substance | MC4R versus MC3R selectivity ([1]; from EC50 values of Table 2) | agonist efficacy at all the melanocortin receptor isoforms examined ([1]; mMC1R, mMC3R, mMC4R, mMC5R, maximal efficacy compared to NDP-MSH control) | agonist activity at the melanocortin receptors (melanocortin receptors)
Tyr-c[Cys-His-D-Phe-(R)-MIM(Arg)-Trp-Asn-Ala-Phe-Cys]-Tyr-NH2 [compound 7] | 5 fold | full agonists | 
Tyr-c[β-Asp-His-DPhe-Arg-Trp-Asn-Ala-Phe-Dpr]-Tyr-NH2 (sidechain bridge or staple) |  |  | full agonist at the melanocortin receptors that is as potent as the endogenous α-MSH agonist
